Assay results as given in patent publication US9096560B2, “5-heterocyclylalkyl-3-hydroxy-2-phenylcyclopent-2-enones as herbicides” (Syngenta Limited, priority 2008, dated 2015).

Columns and labels:
Format in all cases: in vivo
[1] = test system: Alopecurus myosuroides (ALOMY); experiment: Example B post-emergence herbicidal test, ALOMY; conditions: Alopecurus myosuroides, 312 h, rate 250 g/ha, evaluated after 13 days, scale 0-100, read-out: Post-emergence activity ALOMY (100=total damage to plant; 0=no damage to plant)
Summary of the method: (§1)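 Foliar application to 8-day-old pot-grown seedlings in a glasshouse (24/16 °C, 14 h photoperiod, 65% humidity). Spray solution was derived from an acetone/water (50:50) formulation with 0.5% Tween 20. Injury was assessed 13 days later on a 0–100 scale.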

[2] = test system: Echinochloa crus-galli (ECHCG); experiment: Example B post-emergence herbicidal test, ECHCG; conditions: Echinochloa crus-galli, 312 h, rate 250 g/ha, evaluated after 13 days, scale 0-100, read-out: Post-emergence activity ECHCG (100=total damage to plant; 0=no damage to plant)
Summary of the method: as §1

Lolium perenne (LOLPE) [3] = experiment: Example B pre-emergence herbicidal test, LOLPE; conditions: Lolium perenne, 312 h, rate 250 g/ha, evaluated after 13 days, 100=total damage to plant, 0=no damage to plant
Summary of the method: (§2)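 Pots sown, sprayed day 1 pre-emergence; spray: aqueous dilution of formulation in acetone/water 50:50 + 0.5% Tween 20. Glasshouse 24/16° C, 14 h light, 65% RH, watering twice daily. Visual damage rating at 13 d, 0–100 scale.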

Avena fatua (AVEFA) [4] = experiment: Example B post-emergence herbicidal test, AVEFA; conditions: Avena fatua, 312 h, rate 250 g/ha, evaluated after 13 days, scale 0-100, read-out: Post-emergence activity AVEFA (100=total damage to plant; 0=no damage to plant)
Summary of the method: as §1

[5] = test system: Alopecurus myosuroides (ALOMY); experiment: Example B pre-emergence herbicidal test, ALOMY; conditions: Alopecurus myosuroides, 312 h, rate 250 g/ha, evaluated after 13 days, 100=total damage to plant, 0=no damage to plant
Summary of the method: as §2

[6] = test system: Echinochloa crus-galli (ECHCG); experiment: Example B pre-emergence herbicidal test, ECHCG; conditions: Echinochloa crus-galli, 312 h, rate 250 g/ha, evaluated after 13 days, 100=total damage to plant, 0=no damage to plant
Summary of the method: as §2

Avena fatua (AVEFA) [7] = experiment: Example B pre-emergence herbicidal test, AVEFA; conditions: Avena fatua, 312 h, rate 250 g/ha, evaluated after 13 days, 100=total damage to plant, 0=no damage to plant
Summary of the method: as §2

[8] = test system: Winter Wheat variety 'Hereward'; experiment: Example C crop damage test on Winter Wheat, post-emergence, no safener; conditions: Triticum aestivum, 312 h, rate 250 g/ha, evaluated after 13 days, read-out: Winter Wheat (Hereward) damage (100=total damage to plant; 0=no damage to plant)
Experimental: Seeds of the Winter Wheat variety ‘Hereward’ were sown in standard soil in pots. After 8 days cultivation under controlled conditions in a glasshouse (at 24/16° C., day/night; 14 hours light; 65% humidity), the plants were sprayed with an aqueous spray solution derived from the formulation of the technical active ingredient in acetone/water (50:50) solution containing 0.5% Tween 20 (polyoxyethelyene sorbitan monolaurate, CAS RN 9005-64-5). The test plants were then grown in a glasshouse under controlled conditions in a glasshouse (at 24/16° C., day/night; 14 hours light; 65% humidity) and watered twice daily. After 13 days for pre and post-emergence, the test was evaluated (100=total damage to plant; 0=no damage to plant).

[9] = test system: Winter Wheat variety 'Hereward' seed treated with cloquintocet mexyl; experiment: Example C crop damage test on Winter Wheat seed treated with safener cloquintocet mexyl, post-emergence; conditions: rate 250 g/ha, seed treated with cloquintocet mexyl 0.5 grams per kilogram of dry seed, evaluated after 13 days
Experimental: Seeds of the Winter Wheat variety ‘Hereward’ were seed treated with a wettable powder formulation of the cereal herbicide safener, cloquintocet mexyl, at a rate of 0.5 grams per kilogram of dry seed prior to the initiation of glasshouse testing. One seed was sown per 1.5 inch plastic pot into a sandy loam soil at a depth of 1 cm, 8 days prior to application of the test compounds and was watered and grown under controlled conditions in a glasshouse (at 24/16° C., day/night; 14 hours light; 65% humidity). The plants were sprayed Post-emergence with an aqueous spray solution derived from the formulation of the technical active ingredient in acetone/water (50:50) solution containing 0.5% Tween 20 (polyoxyethelyene sorbitan monolaurate, CAS RN 9005-64-5). The test plants were then grown in a glasshouse under controlled conditions in a glasshouse (at 24/16° C., day/night; 14 hours light; 65% humidity) and watered twice daily. After 13 days for pre and post-emergence, the test was evaluated (100=total damage to plant; 0=no damage to plant).

Lolium perenne (LOLPE) [10] = experiment: Example B post-emergence herbicidal test, LOLPE; conditions: Lolium perenne, 312 h, rate 250 g/ha, evaluated after 13 days, scale 0-100, read-out: Post-emergence activity LOLPE (100=total damage to plant; 0=no damage to plant)
Summary of the method: as §1

Structure (SMILES)	pest or weed control at 250 g/ha [1]	pest or weed control at 250 g/ha [2]	pest or weed control at 250 g/ha (Lolium perenne (LOLPE) [3])	pest or weed control at 250 g/ha (Avena fatua (AVEFA) [4])	pest or weed control at 250 g/ha [5]	pest or weed control at 250 g/ha [6]	pest or weed control at 250 g/ha (Avena fatua (AVEFA) [7])	crop damage to winter wheat at 250 g/ha [8]	Winter Wheat (Hereward) + cloquintocet mexyl damage (100=total damage to plant; 0=no damage to plant) [9]	pest or weed control at 250 g/ha (Lolium perenne (LOLPE) [10])
Cc1cc(C)c(C2=C(OC(=O)C(C)(C)C)CC(CC3CCOC3)C2=O)c(C)c1 (centres unmarked) [Compound P7]	100%	90%	100%	80%	100%	100%	90%	70%	0	100%
Cc1cc(C)c(C2=C(OC(=O)C(C)(C)C)C/C(=C\C3CCOCC3)C2=O)c(C)c1 [Compound P11]	90%	100%	100%	90%	100%	100%	100%	80%	70	100%
Cc1cc(C)c(C2=C(OC(=O)C(C)C)CC(CC3CCOC3)C2=O)c(C)c1 (centres unmarked) [Compound P13]	90%	100%	100%	90%	100%	100%	90%	70%	10	100%
CCCCCCC(=O)OC1=C(c2c(C)cc(C)cc2C)C(=O)C(CC2CCOC2)C1 (centres unmarked) [Compound P16]	100%	100%	100%	100%	100%	100%	90%	70%	0	100%
Cc1cc(C)c(C2=C(OC(=O)c3ccccc3)CC(CC3CCOC3)C2=O)c(C)c1 (centres unmarked) [Compound P17]	100%	100%	100%	90%	100%	90%	90%	70%	0	100%
CCCOC(=O)OC1=C(c2c(C)cc(C)cc2C)C(=O)C(CC2CCOC2)C1 (centres unmarked) [Compound P20]	100%	100%	100%	90%	100%	80%	90%	40%	0	100%
Cc1cc(C)c(C2=C(OC(=O)OC(C)C)CC(CC3CCOCC3)C2=O)c(C)c1 (centres unmarked) [Compound P43]	100%	100%	100%	90%	100%	100%	100%	50%	40	100%
Cc1cc(C)c(C2=C(OC(=O)c3ccccc3)CC(CC3CCOCC3)C2=O)c(C)c1 (centres unmarked) [Compound P44]	100%	100%	100%	100%	100%	100%	90%	70%	40	100%
CON1CCC(CC2CC(OC(=O)OC(C)C)=C(c3c(C)cc(C)cc3C)C2=O)CC1 (centres unmarked) [Compound P56]	90%	90%	100%	100%	100%	100%	90%	90%	60	100%
Cc1cc(C)c(C2C(=O)C/C(=C\C3CCS(=O)(=O)CC3)C2=O)c(C)c1 (centres unmarked) [Compound T10]	70%	80%	90%	80%	70%	70%	40%	60%	20	70%
CCc1cc(C)cc(CC)c1C1C(=O)C(CC2CCOCC2)C(CC2CCOCC2)C1=O (centres unmarked) [Compound T12]	100%	100%	100%	100%	100%	100%	100%	70%	60	100%
Cc1cc(C)c(C2C(=O)C/C(=C\C3CCCOC3)C2=O)c(C)c1 (centres unmarked) [Compound T14]	100%	100%	100%	100%	100%	100%	100%	80%	60	100%
Cc1cc(C)c(C2C(=O)CC(CC3CCCOC3)C2=O)c(C)c1 (centres unmarked) [Compound T16]	100%	100%	100%	100%	100%	100%	80%	80%	20	100%
Cc1cc(C)c(C2C(=O)C/C(=C\C3CCOC3)C2=O)c(C)c1 (centres unmarked) [Compound T17]	90%	100%	100%	100%	100%	100%	100%	70%	50	100%
